Results on 48 compounds are retold here after patent US20040067915A1, “Method to treat cardiofibrosis with a combination of an angiotensin II antagonist and spironolactone” (G.D. Searle & Co., priority 1995, published 2004).

A value given as a limit tells only on which side of the number the result lay.

The first assay concerns the target T1, angiotensin II receptor (rabbit aortic rings) (Oryctolagus cuniculus, UniProt P34976).
T1 construct: The thoracic aorta was removed, cleaned of adherent fat and connective tissue and then cut into 3-mm ring segments; from tissue; host or cells: rabbit thoracic aorta rings, endothelium removed
T1 sequence (P34976 1-359): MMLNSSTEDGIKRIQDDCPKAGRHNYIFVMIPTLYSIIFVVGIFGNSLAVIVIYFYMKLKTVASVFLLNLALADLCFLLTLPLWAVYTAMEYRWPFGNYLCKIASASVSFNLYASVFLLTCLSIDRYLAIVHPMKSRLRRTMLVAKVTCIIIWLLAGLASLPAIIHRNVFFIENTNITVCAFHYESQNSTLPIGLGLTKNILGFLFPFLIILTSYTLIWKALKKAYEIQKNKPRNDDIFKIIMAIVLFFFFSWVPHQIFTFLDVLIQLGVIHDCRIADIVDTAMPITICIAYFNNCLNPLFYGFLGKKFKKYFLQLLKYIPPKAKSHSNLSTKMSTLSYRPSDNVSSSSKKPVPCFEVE
Nature of the assay: Assay B: In vitro Vascular Smooth Muscle Response for AII (rabbit aortic rings, pA2). It is filed as cell-based. More on the design: key to Assay B pA2 (NC = Non-Competitive antagonist): NC=Non-Competitive antagonist.
Conditions: not given
The procedure:
Assay B: In vitro Vascular Smooth Muscle-response for AII
The compounds of the invention were tested for antagonist activity in rabbit aortic rings. Male New Zealand white rabbits (2-2.5 kg) were sacrificed using an overdose of pentobarbital and exsanguinated via the carotid arteries. The thoracic aorta was removed, cleaned of adherent fat and connective tissue and then cut into 3-mm ring segments. The endothelium was removed from the rings by gently sliding a rolled-up piece of filter paper into the vessel lumen. The rings were then mounted in a water-jacketed tissue bath, maintained at 37° C., between moveable and fixed ends of a stainless steel wire with the moveable end attached to an FT03 Grass transducer coupled to a Model 7D Grass Polygraph for recording isometric force responses. […] The preparations were equilibrated for one hour before approximately one gram of passive tension was placed on the rings. Angiotensin II concentration-response curves were then recorded (3×10^−10 to 1×10^−5 M). Each concentration of AII was allowed to elicit its maximal contraction, and then AII was washed out repeatedly for 30 minutes before rechallenging with a higher concentration of AII. Aorta rings were exposed to the test antagonist at 10^−5 M for 5 minutes before challenging with AII. Adjacent segments of the same aorta ring were used for all concentration-response curves in the presence or absence of the test antagonist. The effectiveness of the test compound was expressed in terms of pA2 values and were calculated according to H. O. Schild [Br. J. Pharmacol. Chemother., 2, 189-206 (1947)]. The pA2 value is […] which increases the EC50 value for AII by a factor of two. Each test antagonist was evaluated in aorta rings from two rabbits.
2Assay B: In vitro Vascular Smooth Muscle Response
As for `CCCCc1cn([C@H]2[C@H](C)CCC[C@@H]2C)c(=O)n1Cc1ccc(-c2ccccc2-c2nnn[nH]2)nc1` [Compound 236], the “Assay B pA2 (NC = Non-Competitive antagonist)” value is on record as “NC”.

In the case of `CCCCc1cn(-c2ccccc2CC)c(=O)n1Cc1ccc(-c2ccccc2-c2nnn[nH]2)cc1` [Compound 271], the “Assay B pA2 (NC = Non-Competitive antagonist)” value is on record as “NC”.

As for `CCCCc1cn(-c2ccccc2C(C)C)c(=O)n1Cc1ccc(-c2ccccc2-c2nnn[nH]2)cc1` [Compound 272], the “Assay B pA2 (NC = Non-Competitive antagonist)” value is on record as “NC”.

Still in this assay, the particulars now being: two determinations given as a/b.
Take `CCCCc1ncn(Cc2ccc(-c3ccccc3-c3nnn[nH]3)cc2)n1` [Compound 54]: the Kb – broadly, the affinity of an antagonist, worked out from how it opposes an agonist – is 955 nM.

`CCCCc1nc(CCCC2CCCCC2)n(Cc2ccc(-c3ccccc3-c3nnn[nH]3)cc2)n1` [Compound 57] gave a Kb of 1000 nM. `CCCCc1nc(C)n(Cc2ccc(-c3ccccc3C(=O)O)cc2)n1` [Compound 77] showed a Kb of 1700 nM. On to `CCCCc1nn(CCCC)c(=O)n1Cc1ccc(-c2ccccc2C(=O)O)cc1` [Compound 78], for which the Kb is 100 nM.

Compound `CCCCc1nn(CC(=O)C23CC4CC(CC(C4)C2)C3)c(=O)n1Cc1ccc(-c2ccccc2-c2nn[nH]n2)cc1` [Compound 80] had a Kb of 7.94 nM.

`CCCCc1nn(CCCc2ccccc2)c(=O)n1Cc1ccc(-c2ccccc2-c2nn[nH]n2)cc1` [Compound 81]: the Kb was 10 nM.

Compound `CCCCc1nn(CC(O)c2ccccc2)c(=O)n1Cc1ccc(-c2ccccc2-c2nn[nH]n2)cc1` (centres unmarked) [Compound 83] gave a Kb of 5.01 nM.

In the case of `CCCCc1nn(CC(=O)OC(C)(C)C)c(=O)n1Cc1ccc(-c2ccccc2-c2nn[nH]n2)cc1` [Compound 84], the antagonist equilibrium constant (Kb) is 79.4 nM. Turning to `CCCCCCn1nc(CCCC)n(Cc2ccc(-c3ccccc3-c3nn[nH]n3)cc2)c1=O` [Compound 85], the Kb was 1.26 nM. On to `CCCCc1nn(CC(=O)OCC)c(=O)n1Cc1ccc(-c2ccccc2-c2nn[nH]n2)cc1` [Compound 86], for which the Kb is 15.8 nM. The compound `CCCCc1nn(CC(=O)O)c(=O)n1Cc1ccc(-c2ccccc2-c2nn[nH]n2)cc1` [Compound 87] had a Kb of 15.8 nM. In turn, `CCCCc1nn(CCC2CCCCC2)c(=O)n1Cc1ccc(-c2ccccc2-c2nn[nH]n2)cc1` [Compound 89] had a Kb of 12.6 nM. As to `CCCCCn1nc(CCCC)n(Cc2ccc(-c3ccccc3-c3nn[nH]n3)cc2)c1=O` [Compound 90], the Kb was 1 nM.

For the compound `CCCCc1nn(CC(OCC(=O)O)c2ccccc2)c(=O)n1Cc1ccc(-c2ccccc2-c2nn[nH]n2)cc1` (centres unmarked) [Compound 91], the Kb is 2.51 nM. As for `CCCCc1nn(CCC(C)CC(C)(C)C)c(=O)n1Cc1ccc(-c2ccccc2-c2nn[nH]n2)cc1` (centres unmarked) [Compound 92], the antagonist dissociation constant (Kb) was 12.6 nM.

Consider `CCCCc1nn(C(=O)CCC)c(=O)n1Cc1ccc(-c2ccccc2-c2nn[nH]n2)cc1` [Compound 95], for which the Kb is 6.31 nM. In the case of `CCCCc1nn(CC(=O)c2cc(OC)ccc2OC)c(=O)n1Cc1ccc(-c2ccccc2-c2nn[nH]n2)cc1` [Compound 96], the Kb was 10 nM. Same read-out and setting: as for `CCCCc1nn(CC(OCc2ccccc2)c2ccccc2)c(=O)n1Cc1ccc(-c2ccccc2-c2nn[nH]n2)cc1` (centres unmarked) [Compound 97], the figure is 20 nM; as for `CCCCc1nn(CC(O)c2cc(OC)ccc2OC)c(=O)n1Cc1ccc(-c2ccccc2-c2nn[nH]n2)cc1` (centres unmarked) [Compound 98], 7.94 nM; as for `CCCCc1nn(Cc2ccc3ccccc3c2)c(=O)n1Cc1ccc(-c2ccccc2-c2nn[nH]n2)cc1` [Compound 99], 316 nM. For the compound `CCCCc1nn(C(CC(=O)OCC)C(=O)c2ccccc2)c(=O)n1Cc1ccc(-c2ccccc2-c2nn[nH]n2)cc1` (centres unmarked) [Compound 101], the antagonist equilibrium constant (Kb) was 15.8 nM. Same read-out and setting: as for `CCCCc1nn(C(C)(C)C(=O)c2ccccc2)c(=O)n1Cc1ccc(-c2ccccc2-c2nn[nH]n2)cc1` [Compound 102], the figure is 20 nM; as for `CCCCc1nn(CCCCC(=O)O)c(=O)n1Cc1ccc(-c2ccccc2-c2nn[nH]n2)cc1` [Compound 103], 10 nM. In the case of `CCCCn1nc(C(C#N)CCC)n(Cc2ccc(-c3ccccc3-c3nn[nH]n3)cc2)c1=O` (centres unmarked) [Compound 106], the Kb was 20 nM.

The compound `CCCCc1nn(CC(OCC(=O)OCC)c2ccccc2)c(=O)n1Cc1ccc(-c2ccccc2-c2nn[nH]n2)cc1` (centres unmarked) [Compound 107] gave a Kb of 5.01 nM. The same measure, in the same setting: as for `CCCCc1nc2cnncc2n1Cc1ccc(-c2ccccc2C(=O)O)cc1` [Compound 108], the figure is 5010 nM; as for `CCCCc1nc2c(O)nnc(O)c2n1Cc1ccc(-c2ccccc2C(=O)O)cc1` [Compound 109], 50.1 nM. Same read-out and setting: then `CCCCc1nc2c(Cl)nnc(Cl)c2n1Cc1ccc(-c2ccccc2-c2nnn[nH]2)cc1` [Compound 110], with 398 nM; and `CCCCc1nc2c(OCC)nnc(OCC)c2n1Cc1ccc(-c2ccccc2-c2nnn[nH]2)cc1` [Compound 112], with 6310 nM; and `CCCCc1nc2c(CCC)nnc(O)c2n1Cc1ccc(-c2ccccc2-c2nnn[nH]2)cc1` [Compound 113], with 3.98 nM.

For the compound `CCCCc1nc2c(O)nnc(CCC)c2n1Cc1ccc(-c2ccccc2-c2nn[nH]n2)cc1` [Compound 114], the Kb was 398 nM.

On to `CCCCc1nc2c(O)nncc2n1Cc1ccc(-c2ccccc2-c2nnn[nH]2)cc1` [Compound 116], for which the Kb was 316 nM.

Compound `CCCCc1nc(Cc2ccc(-c3ccccc3C(=O)O)cc2)nn1CCCC` [Compound 127] gave a Kb of 11000 nM.

In turn, `CCCCc1nc(Cc2ccc(-c3ccccc3-c3nnn[nH]3)cc2)nn1CCCC` [Compound 129] showed an antagonist dissociation constant (Kb) of 5010 nM.

`CCCCc1cn(CCc2ccccc2)c(=O)n1Cc1ccc(-c2ccccc2-c2nnn[nH]2)cc1` [Compound 133] showed a Kb of 2 nM. Consider `CCCCc1cn(CCc2cccs2)c(=O)n1Cc1ccc(-c2ccccc2-c2nnn[nH]2)cc1` [Compound 134], for which the antagonist equilibrium constant (Kb) was 0.501 nM. As for `CCCCc1cn(-c2ccccc2Cl)c(=O)n1Cc1ccc(-c2ccccc2-c2nnn[nH]2)cc1` [Compound 135], the Kb was 3.16 nM.

`CCCCc1c(C)n(CCCC)c(=O)n1Cc1ccc(-c2ccccc2-c2nnn[nH]2)cc1` [Compound 137]: the Kb is 5.01 nM. The same measure, in the same setting: then `CCCc1cn(CCC)c(=O)n1Cc1ccc(-c2ccccc2-c2nnn[nH]2)cc1` [Compound 138], with 6.31 nM; and `CCCCc1nc(Cl)c(Cl)n1Cc1ccc(-n2cccc2C(=O)O)cc1` [Compound 147], with 2510 nM. For `CCCCc1nc(Cl)c(CO)n1Cc1ccc(-n2cccc2C(=O)O)cc1` [Compound 148], the antagonist equilibrium constant (Kb) is 1580 nM. `CCCCc1cn(-c2c(C)cccc2C)c(=O)n1Cc1ccc(-c2ccccc2-c2nnn[nH]2)cc1` [Compound 275] had a Kb of 0.851 nM. In turn, `CCCCc1cn(-c2c(C(C)C)cccc2C(C)C)c(=O)n1Cc1ccc(-c2ccccc2-c2nnn[nH]2)cc1` [Compound 277] gave a Kb of 288 nM.

For another assay, the system named is pressor response to AII. Nature of the assay: Assay C: In vivo Intragastric Pressor Assay Response for AII Antagonists. Conditions: dose 3 mg/kg, rat. The procedure: Assay C: In vivo Intragastric Pressor Assay Response for All Antagonists
Male Sprague-Dawley rats weighing 225-300 grams were anesthetized with methohexital (30 mg/kg, i.p.) and catheters were implanted into the femoral artery and vein. The catheters were tunneled subcutaneously to exit dorsally, posterior to the head and between the scapulae. The catheters were filled with heparin (1000 units/ml of saline). The rats were returned to their cage and allowed regular rat chow and water ad libitum. After full recovery from surgery (3-4 days), rats were placed in Lucite holders and the arterial line was connected to a pressure transducer. Arterial pressure was recorded on a Gould polygraph (mmHg). Angiotensin II was administered as a 30 ng/kg bolus via the venous catheter delivered in a 50 μl volume with a 0.2 ml saline flush. The pressor response in mm Hg was measured by the difference from pre-injection arterial pressure to the maximum pressure achieved. The AII injection was repeated every 10 minutes until three consecutive injections yielded responses within 4 mmHg of each other. These three responses were then averaged and represented the control response to AII. The test compound was suspended in 0.5% methylcellulose in water and was administered by gavage. The volume administered was 2 ml/kg body weight. The standard dose was 3 mg/kg. Angiotensin II bolus injections were given at 30, 45, 60, 75, 120, 150, and 180 minutes after gavage. The pressor response to AII was measured at each time point. The rats were then returned to their cage for future testing. A minimum of 3 days was allowed between tests. Percent inhibition was calculated for each time point following gavage by the following formula: [(Control Response—Response at time point)/Control Response]×100.
3Assay C: In vivo Pressor Response
As to `CCCCc1nc2cnncc2n1Cc1ccc(-c2ccccc2-c2nnn[nH]2)cc1` [Compound 115], the “Assay C Duration” value is more than 240 min.

On to `CCCCc1nc2c(OC(C)=O)nnc(OC(C)=O)c2n1Cc1ccc(-c2ccccc2-c2nnn[nH]2)cc1` [Compound 125], for which the “Assay C Duration” value was more than 240 min.

Staying with this assay, now noted: po, dose 3 mg/kg, rat, AII pressor response.
Turning to `CCCCc1nc2cnncc2n1Cc1ccc(-c2ccccc2-c2nnn[nH]2)cc1` [Compound 115], at 3 mg/kg the inhibition was 40%. Turning to `CCCCc1nc2c(OC(C)=O)nnc(OC(C)=O)c2n1Cc1ccc(-c2ccccc2-c2nnn[nH]2)cc1` [Compound 125], the inhibition – broadly, the drop in the measured response relative to a control, in per cent – at 3 mg/kg was found to be 35%.
